According to patent publication EP0353678B1, “FR-901154 and FR-901155 substances, a process for their production” (priority 1988, dated 1990):

How the values were obtained:
[1] = system: Aspergillus niger IFO 4417; assay: Antimicrobial activity against fungi, serial agar dilution method in Sabouraud agar; type: cell-based; design: unit not given here; details: 30°C for 24 hours
Protocol: Antimicrobial activities of the FR-901154 and FR-901155 Substances Antimicrobial activities of the FR-901154 and FR-901155 substances against various fungi were determined by a serial agar dilution method in a Sabouraud agar. Minimum inhibitory concentrations (MIC) were expressed in terms of »g/ml after incubation at 30°C for 24 hours. […]

[2] = Solubility (physical and chemical properties); type: physicochemical
Protocol: (23)/(D) [formula] : -74° (c = 1.8, CHCl₃) (8) Ultraviolet Absorption Spectrum: end absorption (9) Infrared Absorption Spectrum: [drawing 4] 3570, 3500, 2940, 2880, 2820, 1740, 1710, 1700, 1640, 1460, 1450, 1380, 1350, 1320, 1280, 1230, 1190, 1170, 1140, 1100, 1090, 1050, 1040, 1000, 990, 940, 910 cm⁻¹ (10) ¹³C Nuclear Magnetic Resonance Spectrum: δ(ppm, CDCl₃, 100MHz): [formula] [formula] (11) ¹H Nuclear Magnetic Resonance Spectrum: the chart of which being shown in Figure 3, (12) Thin Layer Chromatography: […]

MIC Value [1] | Solubility ([2]; methanol, ethanol, acetone, ethyl acetate, chloroform, diethyl ether, benzene and acetonitrile) | Solubility ([2]; n-hexane and petroleum ether) | Solubility ([2]; water) | SMILES
0.025 |  |  |  | C=CCC1/C=C(\C)CC(C)CC(OC)C2OC(O)(C(=O)C(=O)N3CCCCC3C(=O)OC(/C(C)=C/C3CCC(O)C(O)C3)C(C)C(O)CC1=O)C(C)CC2OC (stereo not shown) [FR-901154]
 | Soluble | Sparingly Soluble | Insoluble | CCCC1C=C(C)CC(C)CC(OC)C2OC(O)(C(=O)C(=O)N3CCCCC3C(=O)OC(C(C)=CC3CCC(O)C(OC)C3)C(C)C(O)CC1=O)C(C)CC2OC (stereo not shown) [FR-901156, 1,14-dihydroxy-12-[2-(4-hydroxy-3-methoxycyclohexyl)-1-methylvinyl]-23,25-dimethoxy-13,19,21,27-tetramethyl-17-propyl-11,28-dioxa-4-azatricyclo[22.3.1.0^4,9]octacos-18-ene-2,3,10,16-tetraone]
